Settings: Liquid, Ebulliometric method (Recirculating still)

COCC(C)O (stereo not drawn) [1-methoxy-2-propanol]
Settings	vapor or sublimation pressure [kPa]
342.3 K	15
352.5 K	23.5
360.1 K	32
367.4 K	42.1
371.6 K	49.1
376 K	57.6
380 K	66.1
383.5 K	74.6
386.9 K	83.3
390.1 K	92.6
392.8 K	99.9
397.9 K	116.9
400 K	125.5
402.2 K	134
404.3 K	142.5
406.3 K	151
408.2 K	159.5
410 K	168
411.8 K	176.5

COCCO [2-methoxyethan-1-ol]
Settings	vapor or sublimation pressure [kPa]
346.4 K	15
356.9 K	23.5
364.7 K	32
376 K	49
380.6 K	57.5
384.5 K	66
388.1 K	74.5
391.3 K	83
394.4 K	91.5
397.2 K	100
400.1 K	108.5
402.6 K	117
404.9 K	125.5
407 K	134
409.1 K	142.5
411.1 K	151
412.9 K	159.5
414.7 K	168
416.6 K	176.5

Reference: the NIST ThermoML archive (doi:10.1016/j.jct.2012.04.029)
